In PubChem BioAssay AID1845212 (Molecular Pharmacology Branch, DTP, NCI, 2023):
Where “and” joins values, the source holds several entries; their conditions need not be identical. Equal entries are not always repeated.

System: NCI-H719 tumor spheroids, viability
Assay: Anticancer human tumor NCI-H719 cell line growth inhibition;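 also: spheroids exposed to compounds for seven days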;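 as to viability, T/C: percent viability relative to DMSO vehicle control as 100%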
Details: spheroids with HUVEC and MSC; for viability, T/C: stronger effect = lower value; active = viability on the fitted dose curve at most 10% of control; inactive = the rest
Summary of the method: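 Single agents and combinations were tested on spheroids built from tumor cells plus HUVEC and hMSC, at half-log dilutions starting at or near clinical Cmax, else 10 microM; final DMSO 0.25% (v/v).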

CC(C)n1c(=O)n(C)c2cnc3cc(F)c(-c4ccc(OCCCN5CCCCC5)nc4)cc3c21 + COc1cc2c(cc1O)CCNC21CSC2c3c(OC(C)=O)c(C)c4c(c3C(COC1=O)N1C(O)C3Cc5cc(C)c(OC)c(O)c5C(C21)N3C)OCO4
inactive: viability, T/C (second compound 30 pM, first compound 0.0316 µM) 90.9% | viability, T/C (second compound 30 pM, first compound 0.1 µM) 86.2% | viability, T/C (second compound 30 pM, first compound 0.316 µM) 85.7% | viability, T/C (second compound 30 pM, first compound 1 µM) 71.2% | viability, T/C (second compound 30 pM, first compound 3.16 µM) 74.3% | viability, T/C (second compound 30 pM, first compound 10 µM) 98.8% | viability, T/C (second compound 94.9 pM, first compound 0.0316 µM) 40.8% | viability, T/C (second compound 94.9 pM, first compound 0.1 µM) 60.5% | viability, T/C (second compound 94.9 pM, first compound 0.316 µM) 45.5% | viability, T/C (second compound 94.9 pM, first compound 1 µM) 47.9% | viability, T/C (second compound 94.9 pM, first compound 3.16 µM) 36.5% | viability, T/C (second compound 94.9 pM, first compound 10 µM) 43.7% | viability, T/C (second compound 0.0003 µM, first compound 0.0316 µM) 30.1% | viability, T/C (second compound 0.0003 µM, first compound 0.1 µM) 5.76% | viability, T/C (second compound 0.0003 µM, first compound 0.316 µM) 27.8% | viability, T/C (second compound 0.0003 µM, first compound 1 µM) 8.34% | viability, T/C (second compound 0.0003 µM, first compound 3.16 µM) 8.82% | viability, T/C (second compound 0.0003 µM, first compound 10 µM) 5.34%
> 10000 nM: IC50 (curve of first compound, second compound 30 pM)
active: viability, T/C (second compound 0.000949 µM, first compound 0.0316 µM) 6.42% | viability, T/C (second compound 0.000949 µM, first compound 0.1 µM) 7.84% | viability, T/C (second compound 0.000949 µM, first compound 0.316 µM) 6.99% | viability, T/C (second compound 0.000949 µM, first compound 1 µM) 6.68% | viability, T/C (second compound 0.000949 µM, first compound 3.16 µM) 5.62% | viability, T/C (second compound 0.000949 µM, first compound 10 µM) 4.34% | viability, T/C (second compound 0.003 µM, first compound 0.0316 µM) 0.61% | viability, T/C (second compound 0.003 µM, first compound 0.1 µM) 1.06% | viability, T/C (second compound 0.003 µM, first compound 0.316 µM) 0.76% | viability, T/C (second compound 0.003 µM, first compound 1 µM) 0.52% | viability, T/C (second compound 0.003 µM, first compound 3.16 µM) 0.99% | viability, T/C (second compound 0.003 µM, first compound 10 µM) 0.68%
< 31.6 nM: IC50 (curve of first compound, second compound 94.9 pM) | IC50 (curve of first compound, second compound 0.0003 µM) | IC50 (curve of first compound, second compound 0.000949 µM) | IC50 (curve of first compound, second compound 0.003 µM)

CC[C@@]1(O)C(=O)OCc2c1cc1n(c2=O)Cc2cc3c(CN(C)C)c(O)ccc3nc2-1
< 3 nM and 3.17 nM: IC50 (compound alone, run of 11/07/2019)
active: viability, T/C (compound 0.00949 µM) 6.14% [middle of 10 runs] | viability, T/C (compound 0.03 µM) 5.56% [middle of 10 runs] | viability, T/C (compound 0.0949 µM) 6.96% [middle of 10 runs] | viability, T/C (compound 0.3 µM) 7.47% [middle of 10 runs]
inactive: viability, T/C (compound 0.003 µM) 44.5% [middle of 10 runs]
3.67 nM and 3.31 nM and < 3 nM: IC50 (compound alone, run of 12/16/2019)
